Results taken from patent US12037344B2, “NLRP3 modulators” (INNATE TUMOR IMMUNITY, INC., priority 2018, dated 2024).

Legend:
THP-1 cells = assay: Measurement of IL-1β production, hTRF protocol (second alternative procedure), THP-1 cells; type: cell-based, human; conditions: Homo sapiens, THP-1, IL-1β production, human; read-out: NLRP3 hILIB EC50
Summary of the method: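 Compounds, dilution series starting at a final 10 μM, were incubated 2 hours at 37° C with PMA-differentiated THP-1 cells (50 ng/ml overnight; 50,000 cells/well, 2% FBS RPMI). Released IL-1β quantified in supernatant by hTRF kit with 1:40 antibody dilution, 4° C overnight, 665/615 nm ratio.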

TLR7 = molecular target: T1, TLR7 (Homo sapiens, UniProt Q9NYK1); assay: In vitro human TLR7 binding reporter assay (HEK-Blue, NF-kB/AP1-inducible SEAP); type: cell-based; conditions: activity range class, read-out: TLR7 Agonist EC50
T1 construct: human HEK-Blue cells co-expressing a TLR7 or TLR8 gene
T1 sequence (Q9NYK1 27-1049): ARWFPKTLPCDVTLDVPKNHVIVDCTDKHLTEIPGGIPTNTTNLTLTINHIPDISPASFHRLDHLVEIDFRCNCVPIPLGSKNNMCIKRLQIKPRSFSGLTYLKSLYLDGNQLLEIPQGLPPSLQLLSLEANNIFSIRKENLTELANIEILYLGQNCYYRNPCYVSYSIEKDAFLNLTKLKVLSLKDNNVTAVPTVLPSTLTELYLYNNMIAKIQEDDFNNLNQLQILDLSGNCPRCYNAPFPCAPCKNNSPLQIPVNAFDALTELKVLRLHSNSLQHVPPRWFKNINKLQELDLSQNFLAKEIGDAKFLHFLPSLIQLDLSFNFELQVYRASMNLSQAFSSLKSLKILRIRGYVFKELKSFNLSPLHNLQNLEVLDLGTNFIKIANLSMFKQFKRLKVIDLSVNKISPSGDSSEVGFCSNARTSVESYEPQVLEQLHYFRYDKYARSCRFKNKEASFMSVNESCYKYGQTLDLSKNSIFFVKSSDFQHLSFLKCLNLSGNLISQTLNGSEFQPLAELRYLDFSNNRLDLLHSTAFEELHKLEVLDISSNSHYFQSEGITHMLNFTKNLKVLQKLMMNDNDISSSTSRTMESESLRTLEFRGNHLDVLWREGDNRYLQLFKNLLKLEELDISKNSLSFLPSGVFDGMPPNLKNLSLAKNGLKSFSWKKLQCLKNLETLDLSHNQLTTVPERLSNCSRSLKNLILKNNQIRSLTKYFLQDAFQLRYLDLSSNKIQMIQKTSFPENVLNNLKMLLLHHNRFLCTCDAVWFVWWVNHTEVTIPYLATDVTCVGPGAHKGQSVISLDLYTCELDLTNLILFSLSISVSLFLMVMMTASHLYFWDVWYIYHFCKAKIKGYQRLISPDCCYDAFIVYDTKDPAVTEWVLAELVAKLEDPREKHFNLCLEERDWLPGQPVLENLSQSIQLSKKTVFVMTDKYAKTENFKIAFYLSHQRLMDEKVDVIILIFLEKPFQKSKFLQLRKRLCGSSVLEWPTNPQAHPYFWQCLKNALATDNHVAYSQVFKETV
Summary of the method: (§1)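 Cells are seeded and grown for 24 h. Compounds or DMSO are then added and incubated 18 h at 37 °C. Quanti-Blue is added, and SEAP is read after thirty minutes. EC50 values are normalized, with RLU from 50 μM reference standard setting 100% Ymax.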

TLR8 = molecular target: T2, TLR8 (Homo sapiens, UniProt Q9NR97); assay: In vitro human TLR8 binding reporter assay (HEK-Blue, NF-kB/AP1-inducible SEAP); type: cell-based; conditions: activity range class, read-out: TLR8 Agonist EC50
T2 construct: human HEK-Blue cells co-expressing a TLR7 or TLR8 gene
T2 sequence (Q9NR97 27-1041): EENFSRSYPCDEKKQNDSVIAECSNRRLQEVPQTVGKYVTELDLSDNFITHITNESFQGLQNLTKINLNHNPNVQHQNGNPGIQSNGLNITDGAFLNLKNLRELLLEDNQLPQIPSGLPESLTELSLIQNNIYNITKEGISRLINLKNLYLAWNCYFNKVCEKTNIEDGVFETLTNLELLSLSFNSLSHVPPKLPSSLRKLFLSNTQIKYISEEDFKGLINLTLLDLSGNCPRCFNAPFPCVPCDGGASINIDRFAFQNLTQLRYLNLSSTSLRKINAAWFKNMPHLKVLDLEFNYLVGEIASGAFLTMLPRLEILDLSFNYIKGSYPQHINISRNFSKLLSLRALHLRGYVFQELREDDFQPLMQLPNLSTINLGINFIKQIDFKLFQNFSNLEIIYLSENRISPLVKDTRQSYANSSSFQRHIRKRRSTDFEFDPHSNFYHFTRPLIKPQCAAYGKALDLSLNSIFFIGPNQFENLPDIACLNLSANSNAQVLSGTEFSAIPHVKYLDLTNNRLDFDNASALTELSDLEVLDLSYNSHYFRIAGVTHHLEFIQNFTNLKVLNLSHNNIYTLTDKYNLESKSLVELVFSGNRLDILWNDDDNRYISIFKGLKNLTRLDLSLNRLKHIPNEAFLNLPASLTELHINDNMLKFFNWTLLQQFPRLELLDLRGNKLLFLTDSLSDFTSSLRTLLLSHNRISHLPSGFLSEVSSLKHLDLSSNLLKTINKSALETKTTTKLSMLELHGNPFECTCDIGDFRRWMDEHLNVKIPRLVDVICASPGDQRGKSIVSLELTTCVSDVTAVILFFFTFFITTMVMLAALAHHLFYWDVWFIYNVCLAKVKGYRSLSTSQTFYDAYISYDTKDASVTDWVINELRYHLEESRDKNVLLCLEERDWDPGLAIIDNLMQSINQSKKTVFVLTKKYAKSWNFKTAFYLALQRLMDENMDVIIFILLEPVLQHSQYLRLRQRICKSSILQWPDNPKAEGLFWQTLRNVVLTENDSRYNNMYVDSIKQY
Summary of the method: as §1

SMILES | EC50 (THP-1 cells) | EC50 (TLR7) | EC50 (TLR8)
Nc1nc2cc(-c3ccn[nH]3)ccc2c2[nH]c(CC3CCCO3)cc12 (stereo not drawn) [Example 156, 2-[(oxolan-2-yl)methyl]-7-(1H-pyrazol-5-yl)-1H-pyrrolo[3,2-c]quinolin-4-amine] | 0.31 µM | > 100 µM | > 100 µM
CC(C)(F)C(=O)NCCn1nc2c(N)nc3cc(-c4ccn[nH]4)ccc3c2n1 [Example 157, N-{2-[4-amino-7-(1H-pyrazol-5-yl)-2H-[1,2,3]triazolo[4,5-c]quinolin-2-yl]ethyl}-2-fluoro-2-methylpropanamide] | 5.17 µM | > 100 µM | > 100 µM
Nc1nc2cc(-c3ccn[nH]3)ccc2c2nn(CCNC(=O)c3csc(Cl)n3)nc12 [Example 158] | 0.97 µM | > 100 µM | 20 to 100 µM
Nc1nc2cc(-c3ccn[nH]3)ccc2c2nn(CCNC(=O)c3ccccn3)nc12 [Example 159] | 0.68 µM | > 100 µM | > 100 µM
Nc1nc2cc(-c3ccn[nH]3)ccc2c2nn(CCNC(=O)c3ccc(F)cn3)nc12 [Example 160] | 0.7 µM | > 100 µM | > 100 µM
CN(C)CCn1nc2c(N)nc3cc(-c4ccn[nH]4)ccc3c2n1 [Example 161] | 5.82 µM | > 100 µM | > 100 µM
COCCn1nc2c(N)nc3cc(-c4ccn[nH]4)ccc3c2n1 [Example 162] | 1.22 µM | > 100 µM | > 100 µM
Nc1nc2cc(-c3cc[nH]n3)ccc2c2cn(CC(=O)Nc3ccccc3F)nc12 [Example 164] | 0.25 µM | > 100 µM | > 100 µM
Cc1cc(C)n(CCn2cc3c(n2)c(N)nc2cc(-c4cc[nH]n4)ccc23)n1 [Example 166] | 0.31 µM | > 100 µM | > 100 µM
Nc1nc2cc(-c3cc[nH]n3)ccc2c2cn(Cc3nc(-c4ccccc4)no3)nc12 [Example 169] | 0.39 µM | > 100 µM | 20 to 100 µM
CS(=O)(=O)CCn1cc2c(n1)c(N)nc1cc(-c3cc[nH]n3)ccc12 [Example 170] | 1.98 µM | > 100 µM | > 100 µM
CS(=O)(=O)CCCn1cc2c(n1)c(N)nc1cc(-c3cc[nH]n3)ccc12 [Example 171] | 0.6 µM | > 100 µM | > 100 µM
Cc1nc(Cn2cc3c(n2)c(N)nc2cc(-c4cc[nH]n4)ccc23)no1 [Example 174] | 0.23 µM | 1 to 20 µM | 20 to 100 µM
Nc1nc2cc(-c3cc[nH]n3)ccc2c2cn(CCc3c[nH]cn3)nc12 [Example 175] | 0.29 µM | > 100 µM | > 100 µM
Nc1nc2cc(-c3cc[nH]n3)ccc2c2cn(CCNC(=O)[C@H]3CCCO3)nc12 [Example 177] | 2.23 µM | > 100 µM | > 100 µM
Nc1nc2cc(-c3cc[nH]n3)ccc2c2cn(CCNC(=O)COCC(F)(F)F)nc12 [Example 178] | 1.44 µM | > 100 µM | > 100 µM
Nc1nc2cc(-c3cc[nH]n3)ccc2c2cn(CCNC(=O)CC(F)(F)F)nc12 [Example 181] | 6.53 µM | > 100 µM | > 100 µM
N#CC1(C(=O)NCCn2cc3c(n2)c(N)nc2cc(-c4cc[nH]n4)ccc23)CC1 [Example 182] | 1.27 µM | > 100 µM | > 100 µM
NC(=O)CCn1cc2c(n1)c(N)nc1cc(-c3ccn[nH]3)ccc12 [Example 189] | 0.59 µM | > 100 µM | > 100 µM
CCOCCn1cc2c(n1)c(N)nc1cc(-c3ccn[nH]3)ccc12 [Example 190] | 0.22 µM | > 100 µM | > 100 µM
NC(=O)Cn1cc2c(n1)c(N)nc1cc(-c3ccn[nH]3)ccc12 [Example 191] | 7.19 µM | > 100 µM | > 100 µM
Nc1nc2cc(-c3ccn[nH]3)ccc2c2cn(CCF)nc12 [Example 193] | 0.24 µM | 20 to 100 µM | 20 to 100 µM
Nc1nc2cc(-c3cc[nH]n3)ccc2c2cn(CCNc3ccccn3)nc12 [Example 194, 7-(1H-pyrazol-3-yl)-2-(2-(pyridin-2-ylamino)ethyl)-2H-pyrazolo[3,4-c]quinolin-4-amine] | 0.22 µM | > 100 µM | > 100 µM

The next lines start with the values.

EC50 (THP-1 cells) | EC50 (TLR7) | EC50 (TLR8) | SMILES
0.06 µM | > 100 µM | > 100 µM | Nc1nc2cc(-c3cc[nH]n3)ccc2c2cn(CCc3ccccn3)nc12 [Example 163]
0.14 µM | > 100 µM | 20 to 100 µM | Nc1nc2cc(-c3cc[nH]n3)ccc2c2cn(Cc3ccncc3)nc12 [Example 165]
0.15 µM | > 100 µM | > 100 µM | Nc1nc2cc(-c3cc[nH]n3)ccc2c2cn(Cc3cccnc3)nc12 [Example 167]
0.2 µM | > 100 µM | 20 to 100 µM | Nc1nc2cc(-c3cc[nH]n3)ccc2c2cn(Cc3cscn3)nc12 [Example 168]
0.21 µM | > 100 µM | > 100 µM | Nc1nc2cc(-c3cc[nH]n3)ccc2c2cn(Cc3nnc(-c4ccccc4)o3)nc12 [Example 172]
0.21 µM | > 100 µM | 1 to 20 µM | Cc1cc(Cn2cc3c(n2)c(N)nc2cc(-c4cc[nH]n4)ccc23)no1 [Example 173]
0.05 µM | 20 to 100 µM | 20 to 100 µM | Nc1nc2cc(-c3cc[nH]n3)ccc2c2cn(CCNC(=O)c3coc(Cl)n3)nc12 [Example 176]
0.11 µM | > 100 µM | 20 to 100 µM | Cc1nc(C(=O)NCCn2cc3c(n2)c(N)nc2cc(-n4cccn4)ccc23)co1 [Example 183]
0.21 µM | 1 to 20 µM | > 100 µM | COCCn1cc2c(n1)c(N)nc1cc(-c3ccn[nH]3)ccc12 [Example 185]
0.21 µM | 1 to 20 µM | > 100 µM | CCCCn1cc2c(n1)c(N)nc1cc(-c3ccn[nH]3)ccc12 [Example 186]
0.22 µM | > 100 µM | > 100 µM | CCCn1cc2c(n1)c(N)nc1cc(-c3ccn[nH]3)ccc12 [Example 187]
0.21 µM | > 100 µM | > 100 µM | CCn1cc2c(n1)c(N)nc1cc(-c3ccn[nH]3)ccc12 [Example 188]
0.09 µM | > 100 µM | > 100 µM | Nc1nc2cc(-c3ccn[nH]3)ccc2c2cn(CC(F)F)nc12 [Example 192]
